59 compounds from US20070021509A1, “Phosphate transport inhibitors” (priority 2001, published 2007) can be followed below.

In the first assay the test system is phosphate uptake by rabbit intestinal Brush Border Membrane Vesicles (BBMV). Nature of the assay: 33PO4 uptake in rabbit intestinal BBMV (HTS), phosphate transporter inhibition in vitro. The format is biochemical. The conditions noted are these: Table 5, 100 μM compound. In short, it runs like this: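 BBMV from duodenal mucosa of male New Zealand White rabbits, diluted to about 0.5-2.0 mg/mL protein. Uptake buffers carried 33PO4 at 200,000 CPM/19 μL. Controls: Na uptake buffer (max), plus 100 μM KH2PO4 pH 7.4 (mid), K uptake buffer (min).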
Take `O=C(Nc1cccc(C(F)(F)F)c1)Nc1ccccc1Cl` [Compound 223]: the “% Inhib. at 100 μM” value worked out at 85%.
As to `O=C(Nc1cccc(C(F)(F)F)c1)Nc1ccc(Cl)cc1Cl` [Compound 224], the “% Inhib. at 100 μM” value worked out at 85%.
Regarding `O=C(Nc1cccc(C(F)(F)F)c1)N1CCc2ccccc21` [Compound 225], the “% Inhib. at 100 μM” value came out at 80%.
As for `CCOP(=O)(OCC)c1cc(Br)ccc1NC(=O)Nc1cccc(C(F)(F)F)c1` [Compound 226], the “% Inhib. at 100 μM” value amounted to 77%.
With `O=C(Nc1ccc(Br)cc1)Nc1cccc(C(F)(F)F)c1` [Compound 227], the “% Inhib. at 100 μM” value was 75%.
Turning to `O=C(Nc1ccc(Cl)cc1)Nc1cccc(C(F)(F)F)c1` [Compound 228], the “% Inhib. at 100 μM” value is 74%.
The same measure, in the same setting: to `O=C(Nc1cccc(F)c1)Nc1ccc(Br)cc1P(=O)(O)O` [Compound 229] belongs 73%; to `O=C(Nc1cccc(C(F)(F)F)c1)Nc1ccc(Br)cc1P(=O)(O)O` [Compound 230], 49%.

Still in this assay, the particulars now being: Table 6, 100 μM compound.
As to `COc1ccc(-c2cc(-c3ccco3)on2)cc1` [Compound 231], the “% Inhib. at 100 μM” value is 74%.
As to `c1ccc(Oc2ccc(-c3cc(-c4ccco4)on3)cc2)cc1` [Compound 232], the “% Inhib. at 100 μM” value was 72%.
Regarding `c1ccc(Oc2ccc(C3=NOC(c4ccco4)C3)cc2)cc1` (centres unmarked) [Compound 233], the “% Inhib. at 100 μM” value is 68%.
Take `Oc1ccc(C2=NOC(c3ccc(F)cc3)C2)cc1` (centres unmarked) [Compound 234]: the “% Inhib. at 100 μM” value came to 62%.
`Fc1ccc(C2CC(c3ccc(Oc4ccccc4)cc3)=NO2)cc1` (centres unmarked) [Compound 235]: the “% Inhib. at 100 μM” value is recorded as 54%.
For the compound `Oc1ccc(-c2cc(-c3ccco3)on2)cc1` [Compound 236], the “% Inhib. at 100 μM” value amounted to 41%.
As for `COc1ccc(C2=NOC(c3ccco3)C2)cc1` (centres unmarked) [Compound 237], the “% Inhib. at 100 μM” value was 40%.
Take `Cn1nc(-c2cc(Cl)cc(Cl)c2O)cc1-c1ccc(Br)cc1` [Compound 238]: the “% Inhib. at 100 μM” value stood at 16%.

The same assay, now with this note: Table 7, phosphate uptake, read-out: IC50.
As for `COc1ccc(-c2cc(-c3cccc(F)c3)n(C)n2)cc1` [Compound 239], the IC50 (as a rule, the concentration that inhibits the measured activity by half) is 101 to 500 µM.
The same measure, in the same setting: to `COc1ccc(-c2cc(-c3ccco3)n(C)n2)cc1` [Compound 240] belongs 101 to 500 µM.
For `Cn1nc(-c2ccc(O)cc2)cc1-c1cccc(F)c1` [Compound 241], the IC50 was 101 to 500 µM.
Turning to `Cn1nc(-c2ccc(O)cc2)cc1-c1ccco1` [Compound 242], the IC50 was above 1500 µM.
`Cn1nc(-c2ccc(Oc3ccccc3)cc2)cc1-c1cccc(F)c1` [Compound 243]: the IC50 was above 1500 µM.
As to `Cn1nc(-c2ccc(Oc3ccccc3)cc2)cc1-c1ccco1` [Compound 244], the IC50 is above 1500 µM.

Still in this assay, the particulars now being: Table 8, 100 μM compound.
For `CCOP(=O)(OCC)c1cc(Br)ccc1NC(=O)c1ccc(Br)cc1` [Compound 245], the “% Inhib. at 100 μM” value was determined as 67%.
As to `CCCCOc1ccc(C(=O)Nc2ccc(Br)cc2P(=O)(OCC)OCC)cc1` [Compound 246], the “% Inhib. at 100 μM” value was 57%.
Still for that read-out and setting: to `CCCCCCCc1ccc(C(=O)Nc2ccc(Br)cc2P(=O)(OCC)OCC)cc1` [Compound 247] belongs 53%.
Take `CCOP(=O)(OCC)c1cc(Br)ccc1NC(=O)c1ccc(OC)c(OC)c1` [Compound 248]: the “% Inhib. at 100 μM” value is given as 48%.

Staying with this assay, now noted: Table 9, 100 μM compound.
For `O=C(/C=C/c1ccc(Br)cc1)c1cc(Cl)cc(Cl)c1O` [Compound 249], the “% Inhib. at 100 μM” value was determined as 50%.

The same assay, now with this note: Table 10, phosphate uptake, read-out: IC50.
Consider `CCOP(=O)(OCC)c1cc(Br)ccc1NC(=O)c1ccc(OC(F)(F)F)cc1` [Compound 250], for which the IC50 was below 50 µM.
`O=C(Nc1ccc(Br)cc1)c1cc(Br)cc(Br)c1O` [Compound 251]: the IC50 was 51 to 100 µM.
Consider `O=C(Nc1ccc(Cl)c(Cl)c1)c1cc(Cl)cc(Cl)c1O` [Compound 252], for which the IC50 lay within 51 to 100 µM.
On the same count and under the same terms, to `O=C(Nc1ccc(Br)cc1)c1cc(Br)cc(Br)c1O` [Compound 253] belongs 101 to 500 µM; to `O=C(Nc1ccc(Oc2ccc3ccccc3c2Br)c(Cl)c1)c1cc(Br)cc(Br)c1O` [Compound 254], 101 to 500 µM; to `O=C(Nc1ccc(Cl)cc1)c1cc(Br)cc(Br)c1O` [Compound 255], 101 to 500 µM.
Same read-out and setting: to `O=C(Nc1cc(C(F)(F)F)ccc1C(F)(F)F)c1cc(Br)cc(Br)c1O` [Compound 256] belongs 101 to 500 µM; to `COc1ccc(NC(=O)c2cc3ccc4c5ccccc5[nH]c4c3cc2O)cc1` [Compound 257], 101 to 500 µM.
The same measure, in the same setting: to `O=C(Nc1ccc(Oc2ccc(Cl)c3ccccc23)c(Cl)c1)c1cc(Cl)cc(Cl)c1O` [Compound 258] belongs 101 to 500 µM; to `CCOP(=O)(OCC)c1cc(Br)ccc1NC(=O)c1ccc(OC(F)(F)F)cc1` [Compound 259], 101 to 500 µM.
In the case of `CCOP(=O)(OCC)c1cc(Br)ccc1NC(=O)c1ccc(F)cc1F` [Compound 260], the IC50 lay in the range of 101 to 500 µM.
As to `O=C(Nc1ccc(Br)cc1C(=O)O)c1ccc(Cl)c([N+](=O)[O-])c1` [Compound 261], the IC50 fell in the range of 101 to 500 µM.
Same read-out and setting: to `CCOP(=O)(OCC)c1cc(Br)ccc1NC(=O)c1cc(F)c(Cl)cc1Cl` [Compound 262] belongs 101 to 500 µM; to `O=C(Nc1ccc(Br)cc1)c1cc(Br)cc(Br)c1OCCP(=O)(O)O` [Compound 263], 101 to 500 µM.
On to `CCOP(=O)(OCC)c1cc(Br)ccc1NC(=O)c1cc(C(F)(F)F)ccc1C(F)(F)F` [Compound 264], for which the IC50 lay in the range of 101 to 500 µM.
Take `CCOP(=O)(OCC)c1cc(Br)ccc1NC(=O)c1cccc2ccccc12` [Compound 265]: the IC50 lay within 501 to 1000 µM.
With `O=C(Nc1ccc(Br)cc1)c1cc(Br)cc(Br)c1` [Compound 266], the IC50 lay in the range of 501 to 1000 µM.
In the case of `CCOP(=O)(OCC)c1cc(Br)ccc1NC(=O)c1ccc(Cl)c(Cl)c1` [Compound 267], the IC50 was 501 to 1000 µM.
For the compound `O=C(Nc1ccc(Br)cc1P(=O)(O)O)c1ccc(OC(F)(F)F)cc1` [Compound 268], the IC50 is above 1500 µM.
Take `O=C(Nc1ccccc1)c1ccccc1P(=O)(O)O` [Compound 269]: the IC50 was above 1500 µM.
For `CCOP(=O)(OCC)c1cc(Br)ccc1NC(=O)c1c(Cl)cc(Cl)cc1Cl` [Compound 270], the IC50 was above 1500 µM.
On the same count and under the same terms, to `O=C(Nc1ccc(Br)cc1I)c1ccc(OC(F)(F)F)cc1` [Compound 271] belongs above 1500 µM; to `CCOP(=O)(OCC)c1cc(Br)ccc1NC(=O)c1ccc(OC(F)(F)F)cc1` [Compound 272], above 1500 µM.

Still in this assay, the particulars now being: Table 11, phosphate uptake, read-out: IC50.
Regarding `O=C(CCc1ccc(O)cc1)c1c(O)cc(O)cc1O` [Compound 273], the IC50 was 501 to 1000 µM.
With `O=C(/C=C/c1ccco1)c1cccc(O)c1` [Compound 274], the IC50 fell in the range of 501 to 1000 µM.
The same measure, in the same setting: to `COc1cccc(C(=O)/C=C/c2ccco2)c1` [Compound 275] belongs 501 to 1000 µM; to `O=C(/C=C/c1ccco1)c1cccc(Oc2ccccc2)c1` [Compound 276], 501 to 1000 µM.
Same read-out and setting: to `O=C(/C=C/c1cccc(F)c1)c1cccc(O)c1` [Compound 277] belongs 501 to 1000 µM; to `COc1cccc(C(=O)/C=C/c2cccc(F)c2)c1` [Compound 278], above 1500 µM; to `O=C(/C=C/c1cccc(F)c1)c1cccc(Oc2ccccc2)c1` [Compound 279], above 1500 µM.

The same assay, now with this note: Table 12, 100 μM compound.
Consider `O=S(=O)(Cc1ccc(Cl)cc1Cl)c1cc(C(F)(F)F)cc(C(F)(F)F)c1` [Compound 280], for which the “% Inhib. at 100 μM” value worked out at 57%.
As to `Cc1ccc(S(=O)(=O)Cc2c(Cl)cccc2Cl)cc1` [Compound 281], the “% Inhib. at 100 μM” value was 53%.
